Target: T1, human recombinant CBL-b (human Biotin CBL-b recombinant protein a.a. 39-426) (Homo sapiens, UniProt Q13191)
T1 construct: human Biotin CBL-b recombinant protein a.a; 39-426; Biotin (biotinylated); made in house
Assay: Biochemical assay for CBL-b inhibition (ligand displacement TR-FRET)
Format: binding
Settings: 50 nM CBL-b, 0.3 μM Bodipy FL-Probe, read-out: IC50 (CBL-b inhibition, group)
Protocol: The inhibitory activity of the test compounds was assessed by Ligand displacement TR-FRET assay. The human recombinant CBL-b (human Biotin CBL-b recombinant protein a.a. 39-426; synthesised in-house) was diluted in enzyme assay buffer (20 mM HEPES, 150 mM NaCl, 0.01% Triton X, 0.01% BSA, 0.5 mM TCEP) in a 10 μl volume and plated in 384-well plates (Cat #781075, Greiner) to a final concentration of 50 nM. The enzyme/compound mixture was incubated at RT for 60 min. The Bodipy FL-Probe described in WO 2020/210508 (synthesized in-house) diluted in enzyme assay buffer was added to the plate and incubated for 60 min RT, the final probe concentration was 0.3 μM. After 60 min incubation, 10 μl of detection mix (Terbium Streptavidin, (Cat #PV3576, Invitrogen) diluted in 1× Lance buffer) was added and incubated for 60 min at room temperature. Time-resolved fluorescence (excitation, 320 nm; emission donor, 615 nm; emission acceptor, 665 nm) was monitored by using 2030 multilabel reader Victor5 (PerkinElmer). The IC50 (concentration for half maximal inhibition) and % maximum inhibition of the compounds were estimated by fitting the dose response data to a sigmoidal curve fitting equation using Graph pad Prism software V. 8.

T1 sequence (Q13191 39-426): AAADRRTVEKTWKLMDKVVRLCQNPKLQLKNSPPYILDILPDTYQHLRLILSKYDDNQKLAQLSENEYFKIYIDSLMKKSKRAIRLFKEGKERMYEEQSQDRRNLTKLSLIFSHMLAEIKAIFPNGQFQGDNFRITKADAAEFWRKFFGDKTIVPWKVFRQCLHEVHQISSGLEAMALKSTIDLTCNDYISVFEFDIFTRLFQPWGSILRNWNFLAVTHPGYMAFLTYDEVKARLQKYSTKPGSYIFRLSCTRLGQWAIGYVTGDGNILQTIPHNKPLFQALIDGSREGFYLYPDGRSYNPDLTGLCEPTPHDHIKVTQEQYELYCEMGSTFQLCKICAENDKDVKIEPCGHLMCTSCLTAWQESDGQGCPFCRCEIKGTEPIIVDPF

`CC1CCC(C)N(Cc2cc(N3Cc4ccc(C5(Cc6nncn6C)COC5)cc4C3=O)nc(C(F)(F)F)c2)C1` (single isomer, unassigned) [Compound 139] and `C[C@@H]1CN(Cc2cc(N3Cc4ccc(C5(Cc6nncn6C)COC5)cc4C3=O)nc(C(F)(F)F)c2)C[C@H](C)O1` [Compound 72, 2-(4-(((2R,6S)-2,6-Dimethylmorpholino)methyl)-6-(trifluoromethyl)pyridin-2-yl)-6-(3-((4-methyl-4H-1,2,4-triazol-3-yl)methyl)oxetan-3-yl)isoindolin-1-one] fall in the same range of IC50: 300 to 5000 nM for the first, 300 to 5000 nM for the second.

`CC1CCC(C)N(Cc2cc(N3Cc4ccc(C5(Cc6nncn6C)COC5)cc4C3=O)nc(C(F)(F)F)c2)C1` (single isomer, unassigned) [Compound 140] and `CN1CC2CC1CN2Cc1cc(N2Cc3ccc(C4(Cc5nncn5C)COC4)cc3C2=O)nc(C(F)(F)F)c1` (centres unmarked) [Compound 81, 2-(4-((5-Methyl-2,5-diazabicyclo[2.2.1]heptan-2-yl)methyl)-6-(trifluoromethyl)-pyridin-2-yl)-6-(3-((4-methyl-4H-1,2,4-triazol-3-yl)methyl)oxetan-3-yl)isoindolin-1-one] fall in the same range of IC50: 300 to 5000 nM for the first, 300 to 5000 nM for the second.

First: CC1CCC(C)N(Cc2cc(N3Cc4ccc(C5(Cc6nncn6C)COC5)cc4C3=O)nc(C(F)(F)F)c2)C1 (single isomer, unassigned) [Compound 141]
Second: Cn1cnnc1CC1(c2ccc3c(c2)C(=O)N(c2cc(CN4CCC(O)CC4)cc(C(F)(F)F)n2)C3)COC1 [Compound 43, 2-(4-((4-Hydroxypiperidin-1-yl)methyl)-6-(trifluoromethyl)pyridin-2-yl)-6-(3-((4-methyl-4H-1,2,4-triazol-3-yl)methyl)oxetan-3-yl)isoindolin-1-one]
The IC50 of the first is lower: less than 80 nM for the first, 300 to 5000 nM for the second.

`CC1CCC(C)N(Cc2cc(N3Cc4ccc(C5(Cc6nncn6C)COC5)cc4C3=O)nc(C(F)(F)F)c2)C1` (single isomer, unassigned) [Compound 142] and `Cn1cnnc1CC1(c2ccc3c(c2)C(=O)N(c2cc(CN4CC5(COC5)C4)cc(C(F)(F)F)n2)C3)COC1` [Compound 55, 2-(4-((2-Oxa-6-azaspiro[3.3]heptan-6-yl)methyl)-6-(trifluoromethyl)pyridin-2-yl)-6-(3-((4-methyl-4H-1,2,4-triazol-3-yl)methyl)oxetan-3-yl)isoindolin-1-one] fall in the same range of IC50: 300 to 5000 nM for the first, 300 to 5000 nM for the second.

`C[C@H]1CCCN(Cc2cc(Cl)nc(N3Cc4ccc([C@@H](Cc5nncn5C)C(F)(F)F)cc4C3=O)c2)C1` (single isomer, unassigned) [Compound 180] and `CN1CCN(Cc2cc(N3Cc4ccc(C5(Cc6nncn6C)COC5)cc4C3=O)nc(C(F)(F)F)c2)CC1=O` [Compound 63, 2-(4-((4-Methyl-3-oxopiperazin-1-yl)methyl)-6-(trifluoromethyl)pyridin-2-yl)-6-(3-((4-methyl-4H-1,2,4-triazol-3-yl)methyl)oxetan-3-yl)isoindolin-1-one] fall in the same range of IC50: 80 to 300 nM for the first, 80 to 300 nM for the second.

Compared with `Cn1cnnc1CC1(c2ccc3c(c2)C(=O)N(c2cc(CNC4CCCC4O)cc(Cl)n2)C3)COC1` (single isomer, unassigned) [Compound 209, 2-(6-Chloro-4-(((2-hydroxycyclopentyl)amino)methyl)pyridin-2-yl)-6-(3-((4-methyl-4H-1,2,4-triazol-3-yl)methyl)oxetan-3-yl)isoindolin-1-one], `Cn1cnnc1C[C@]1(c2ccc3c(c2)C(=O)N(c2cc(CNCC4CCC4)cc(Cl)n2)C3)C[C@@H](C#N)C1` (single isomer, unassigned) [Compound 245] is higher in IC50: less than 80 nM for the first, 80 to 300 nM for the second. The first is the more potent here.

First: C[C@@H](NCc1cscn1)c1cc(Cl)nc(N2Cc3ccc(C4(Cc5nncn5C)COC4)cc3C2=O)c1 (single isomer, unassigned) [Compound 217]
Second: C[C@@H](NCc1ccccn1)c1cc(Cl)nc(N2Cc3ccc(C4(Cc5nncn5C)COC4)cc3C2=O)c1 (single isomer, unassigned) [Compound 241]
The IC50 of the first is lower: 80 to 300 nM for the first, 300 to 5000 nM for the second. The first is the more potent here.

`C[C@@H](NC[C@H]1CCCO1)c1cc(Cl)nc(N2Cc3ccc(C4(Cc5nncn5C)COC4)cc3C2=O)c1` (single isomer, unassigned) [Compound 220] and `C[C@H](NCc1ccccn1)c1cc(Cl)nc(N2Cc3ccc(C4(Cc5nncn5C)COC4)cc3C2=O)c1` (single isomer, unassigned) [Compound 242] fall in the same range of IC50: 80 to 300 nM for the first, 80 to 300 nM for the second.

`C[C@H]1CCCN(Cc2cc(N3CCCC3)cc(N3Cc4ccc(C5(Cc6nncn6C)COC5)cc4C3=O)c2)C1` [Compound 21, (S)-6-(3-((4-Methyl-4H-1,2,4-triazol-3-yl)methyl)oxetan-3-yl)-2-(3-((3-methyl-piperidin-1-yl)methyl)-5-(pyrrolidin-1-yl)phenyl)isoindolin-1-one] and `Cn1cnnc1CC1(c2ccc3c(c2)C(=O)N(c2cc(CN4CCC5(CCCO5)CC4)cc(C(F)(F)F)n2)C3)COC1` [Compound 32, 2-(4-((1-Oxa-8-azaspiro[4.5]decan-8-yl)methyl)-6-(trifluoromethyl)pyridin-2-yl)-6-(3-((4-methyl-4H-1,2,4-triazol-3-yl)methyl)oxetan-3-yl)isoindolin-1-one] fall in the same range of IC50: 300 to 5000 nM for the first, 300 to 5000 nM for the second.

`Cc1cc(CNCC(F)(F)F)cc(N2Cc3ccc(C4(Cc5nncn5C)COC4)cc3C2=O)c1` [Compound 22, 6-(3-((4-Methyl-4H-1,2,4-triazol-3-yl)methyl)oxetan-3-yl)-2-(3-methyl-5-(((2,2,2-trifluoroethyl)amino)methyl)phenyl)isoindolin-1-one] and `CCNCCc1cc(N2Cc3ccc(C4(Cc5nncn5C)COC4)cc3C2=O)cc(C(F)(F)F)c1` [Compound 75, 2-(3-(2-(Ethylamino)ethyl)-5-(trifluoromethyl)phenyl)-6-(3-((4-methyl-4H-1,2,4-triazol-3-yl)methyl)oxetan-3-yl)isoindolin-1-one] fall in the same range of IC50: 300 to 5000 nM for the first, 300 to 5000 nM for the second.

`Cn1cnnc1CC1(c2ccc3c(c2)C(=O)N(c2cc(C(=O)N4CC[C@H](O)C4)cc(C(F)(F)F)n2)C3)COC1` [Compound 36, (S)-2-(4-(3-Hydroxypyrrolidine-1-carbonyl)-6-(trifluoromethyl)pyridin-2-yl)-6-(3-((4-methyl-4H-1,2,4-triazol-3-yl)methyl)oxetan-3-yl)isoindolin-1-one] and `Cn1cnnc1CC1(c2ccc3c(c2)C(=O)N(c2cc(CN4CCC(C(F)(F)F)CC4)cc(C(F)(F)F)n2)C3)COC1` [Compound 38, 6-(3-((4-Methyl-4H-1,2,4-triazol-3-yl)methyl)oxetan-3-yl)-2-(6-(trifluoro-methyl)-4-((4-(trifluoromethyl)piperidin-1-yl)methyl)pyridin-2-yl)isoindolin-1-one] fall in the same range of IC50: 300 to 5000 nM for the first, 300 to 5000 nM for the second.

`Cn1cnnc1CC1(c2ccc3c(c2)C(=O)N(c2cc(CN4CCC5(CCCO5)C4)cc(C(F)(F)F)n2)C3)COC1` (centres unmarked) [Compound 50, 2-(4-((1-Oxa-7-azaspiro[4.4]nonan-7-yl)methyl)-6-(trifluoromethyl)pyridin-2-yl)-6-(3-((4-methyl-4H-1,2,4-triazol-3-yl)methyl)oxetan-3-yl)isoindolin-1-one] and `Cc1nccn1Cc1cc(N2Cc3ccc(C4(Cc5nncn5C)COC4)cc3C2=O)nc(C(F)(F)F)c1` [Compound 54, 2-(4-((2-Methyl-1H-imidazol-1-yl)methyl)-6-(trifluoromethyl)pyridin-2-yl)-6-(3-((4-methyl-4H-1,2,4-triazol-3-yl)methyl)oxetan-3-yl)isoindolin-1-one] fall in the same range of IC50: 300 to 5000 nM for the first, 300 to 5000 nM for the second.

`Cc1cncn1Cc1cc(N2Cc3ccc(C4(Cc5nncn5C)COC4)cc3C2=O)nc(C(F)(F)F)c1` [Compound 69, 2-(4-((5-Methyl-1H-imidazol-1-yl)methyl)-6-(trifluoromethyl)pyridin-2-yl)-6-(3-((4-methyl-4H-1,2,4-triazol-3-yl)methyl)oxetan-3-yl)isoindolin-1-one] and `Cc1cn(Cc2cc(N3Cc4ccc(C5(Cc6nncn6C)COC5)cc4C3=O)nc(C(F)(F)F)c2)cn1` [Compound 70, 2-(4-((4-Methyl-1H-imidazol-1-yl)methyl)-6-(trifluoromethyl)pyridin-2-yl)-6-(3-((4-methyl-4H-1,2,4-triazol-3-yl)methyl)oxetan-3-yl)isoindolin-1-one] fall in the same range of IC50: 300 to 5000 nM for the first, 300 to 5000 nM for the second.

`Cc1cc(N2Cc3ccc(C4(Cc5nncn5C)COC4)cc3C2=O)cc2c1cnn2CCN(C)C` [Compound 76, 2-(1-(2-(Dimethylamino)ethyl)-4-methyl-1H-indazol-6-yl)-6-(3-((4-methyl-4H-1,2,4-triazol-3-yl)methyl)oxetan-3-yl)isoindolin-1-one] and `CCN(CC)Cc1cc(Cl)nc(N2Cc3ccc(C4(Cc5nncn5C)COC4)cc3C2=O)c1` [Compound 79, 2-(6-Chloro-4-((diethylamino)methyl)pyridin-2-yl)-6-(3-((4-methyl-4H-1,2,4-triazol-3-yl)methyl)oxetan-3-yl)isoindolin-1-one] fall in the same range of IC50: 300 to 5000 nM for the first, 300 to 5000 nM for the second.

`CCN1CCc2c(cc(N3Cc4ccc(C5(Cc6nncn6C)COC5)cc4C3=O)cc2C(F)(F)F)C1` [Compound 77, 2-(2-Ethyl-5-(trifluoromethyl)-1,2,3,4-tetrahydroisoquinolin-7-yl)-6-(3-((4-methyl-4H-1,2,4-triazol-3-yl)methyl)oxetan-3-yl)isoindolin-1-one] was tested, and the IC50 was 300 to 5000 nM.
